# Measurements: patent EP1121436B1, “NON-DESENSITIZING AMPA-RECEPTORS” (Max-Planck-Gesellschaft zur Förderung der Wissenschaften …, priority 1998, dated 2000)
# Key:
# [1] = test system: T504A, E511K or their combined exchange; format: cell-based, rat
# R6TM1R3 = biological target: T1, R6TM1R3 (Rattus norvegicus, UniProt P19492+P42260, A582S/A630S/C576V/C595R/D598Q/D600P/D669E/D672E/E603P/E625D/E665V/E681A/F612L/G615S/H593E/I581V/I639V/INS589HLED/INS599P/K629R/K679E/L568V/L569F/L572I/L608I/L609F/L619F/L626I/M627S/N596D/N605E/P592E/S624C/T607G/T633G/V580L/V601D/V602P/V616L/Y566C/Y590N); experiment: Effect of cyclothiazide on the peak response to glutamate (outside-out patch); format: cell-based; conditions: 100 µM cyclothiazide added to the agonist solution, n=13
# T1 construct: the entire extracellular N-terminal region of GluR3flip was substituted by the corresponding region of GluR6; expressed in transfected cells; host or cells: HEK293, transient
# T1 sequence (P42260+P19492 fused with the stated changes): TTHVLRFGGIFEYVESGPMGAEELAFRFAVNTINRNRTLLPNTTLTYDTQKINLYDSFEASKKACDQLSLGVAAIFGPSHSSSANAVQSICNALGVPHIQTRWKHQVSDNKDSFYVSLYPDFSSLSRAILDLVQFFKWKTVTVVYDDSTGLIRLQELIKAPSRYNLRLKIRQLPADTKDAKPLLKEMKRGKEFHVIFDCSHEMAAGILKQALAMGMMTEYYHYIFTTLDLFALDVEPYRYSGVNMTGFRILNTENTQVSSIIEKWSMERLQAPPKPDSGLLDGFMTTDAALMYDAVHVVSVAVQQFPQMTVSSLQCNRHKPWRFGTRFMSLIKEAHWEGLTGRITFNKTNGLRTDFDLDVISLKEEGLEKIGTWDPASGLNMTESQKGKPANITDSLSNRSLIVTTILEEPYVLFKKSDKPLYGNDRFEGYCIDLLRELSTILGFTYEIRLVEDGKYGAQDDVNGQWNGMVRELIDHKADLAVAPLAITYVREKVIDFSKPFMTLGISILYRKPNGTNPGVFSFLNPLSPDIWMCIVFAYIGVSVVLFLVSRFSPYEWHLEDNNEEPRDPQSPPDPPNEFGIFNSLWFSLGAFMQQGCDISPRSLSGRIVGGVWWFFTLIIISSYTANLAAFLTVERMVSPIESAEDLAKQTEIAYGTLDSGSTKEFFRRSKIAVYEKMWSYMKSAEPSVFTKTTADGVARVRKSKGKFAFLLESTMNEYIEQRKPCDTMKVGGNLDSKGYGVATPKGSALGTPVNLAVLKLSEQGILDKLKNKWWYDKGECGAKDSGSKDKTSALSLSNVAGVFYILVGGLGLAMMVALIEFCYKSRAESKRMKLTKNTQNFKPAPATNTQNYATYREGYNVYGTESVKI
# GluR3flip = biological target: T2, GluR3flip (Rattus norvegicus, UniProt P19492); experiment: Block of desensitization by cyclothiazide added to the agonist solution (outside-out patch); format: cell-based; conditions: cyclothiazide 100µM added to the agonist solution (10 mM glutamate)
# T2 construct: expressed in transfected cells; host or cells: HEK293 (ATCC CRL 1573), transient, pcDNA3
# T2 sequence (P19492 23-888 isoform P19492-2 limits assumed): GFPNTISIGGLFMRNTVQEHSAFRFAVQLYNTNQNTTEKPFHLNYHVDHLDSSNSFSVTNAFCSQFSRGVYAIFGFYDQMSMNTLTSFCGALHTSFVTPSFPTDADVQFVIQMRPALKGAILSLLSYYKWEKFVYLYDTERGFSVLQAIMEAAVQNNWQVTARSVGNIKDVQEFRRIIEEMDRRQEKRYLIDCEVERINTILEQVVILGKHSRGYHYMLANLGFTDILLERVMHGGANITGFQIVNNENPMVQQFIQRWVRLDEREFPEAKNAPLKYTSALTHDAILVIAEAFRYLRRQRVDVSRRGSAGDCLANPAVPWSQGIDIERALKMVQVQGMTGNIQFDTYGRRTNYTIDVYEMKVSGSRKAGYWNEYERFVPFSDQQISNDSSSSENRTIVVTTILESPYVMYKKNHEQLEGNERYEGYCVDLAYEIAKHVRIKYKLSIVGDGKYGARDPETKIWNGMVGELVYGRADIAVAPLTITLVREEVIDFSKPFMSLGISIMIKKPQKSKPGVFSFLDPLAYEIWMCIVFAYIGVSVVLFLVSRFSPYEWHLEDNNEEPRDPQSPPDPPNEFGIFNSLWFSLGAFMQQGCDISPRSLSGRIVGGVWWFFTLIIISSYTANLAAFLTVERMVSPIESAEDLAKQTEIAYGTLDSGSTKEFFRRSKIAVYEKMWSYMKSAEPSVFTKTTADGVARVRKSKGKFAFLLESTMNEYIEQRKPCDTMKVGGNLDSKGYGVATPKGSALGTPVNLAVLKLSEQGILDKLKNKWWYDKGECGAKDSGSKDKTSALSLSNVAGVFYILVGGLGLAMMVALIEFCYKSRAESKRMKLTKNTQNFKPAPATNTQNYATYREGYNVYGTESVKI
# R3(R6S1) = experiment: Effect of cyclothiazide on the peak response to glutamate (outside-out patch); format: cell-based, rat; conditions: 100 µM cyclothiazide added to the agonist solution, n=10
# R6TM1R3(Y521L) = biological target: T3, R6TM1R3(Y521L) (Rattus norvegicus, UniProt P19492+P42260, A582S/A630S/C576V/C595R/D598Q/D600P/D669E/D672E/E603P/E625D/E665V/E681A/F612L/G615S/H593E/I581V/I639V/INS589HLED/INS599P/K629R/K679E/L568V/L569F/L572I/L608I/L609F/L619F/L626I/M627S/N596D/N605E/P592E/S624C/T607G/T633G/V580L/V601D/V602P/V616L/Y521L/Y566C/Y590N); experiment: Responses to kainate and effect of cyclothiazide (outside-out patch); format: cell-based; conditions: glutamate evoked current in the presence of 100 µM cyclothiazide
# T3 construct: the entire extracellular N-terminal region of GluR3flip was substituted by the corresponding region of GluR6; expressed in transfected cells; host or cells: HEK293, transient
# T3 sequence (P42260+P19492 fused with the stated changes): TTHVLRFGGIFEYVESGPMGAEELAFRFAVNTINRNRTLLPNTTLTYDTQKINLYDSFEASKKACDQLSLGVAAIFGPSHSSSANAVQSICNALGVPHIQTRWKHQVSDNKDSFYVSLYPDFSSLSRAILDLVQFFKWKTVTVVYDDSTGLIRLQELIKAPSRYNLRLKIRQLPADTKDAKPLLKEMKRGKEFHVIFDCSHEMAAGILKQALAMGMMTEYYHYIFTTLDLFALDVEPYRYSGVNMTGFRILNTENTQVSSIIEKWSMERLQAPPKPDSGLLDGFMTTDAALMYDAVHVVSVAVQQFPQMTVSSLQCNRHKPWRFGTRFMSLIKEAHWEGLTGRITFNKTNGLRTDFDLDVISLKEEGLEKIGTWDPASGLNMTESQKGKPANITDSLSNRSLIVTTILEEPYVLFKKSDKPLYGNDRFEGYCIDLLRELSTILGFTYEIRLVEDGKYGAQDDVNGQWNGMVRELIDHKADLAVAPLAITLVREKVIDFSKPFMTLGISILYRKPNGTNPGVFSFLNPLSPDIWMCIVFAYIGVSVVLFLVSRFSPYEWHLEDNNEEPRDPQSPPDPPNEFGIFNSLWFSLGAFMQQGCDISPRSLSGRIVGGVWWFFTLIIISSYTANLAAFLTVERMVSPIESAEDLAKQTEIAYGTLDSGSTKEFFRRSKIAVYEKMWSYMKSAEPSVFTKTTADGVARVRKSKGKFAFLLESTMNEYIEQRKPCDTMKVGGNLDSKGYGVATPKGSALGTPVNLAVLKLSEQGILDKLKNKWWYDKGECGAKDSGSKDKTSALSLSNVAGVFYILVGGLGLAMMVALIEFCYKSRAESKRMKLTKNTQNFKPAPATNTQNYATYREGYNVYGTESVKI
# GluR3 L507Y = biological target: T4, GluR3 L507Y (Rattus norvegicus, UniProt P19492, L507Y); experiment: Responses to quisqualate and AMPA and effect of cyclothiazide (outside-out patch); format: cell-based
# T4 construct: expressed in transfected cells; host or cells: HEK293, transient, pCDNA3
# T4 sequence (P19492 23-888 isoform P19492-2 L507Y limits assumed): as the sequence (P19492 23-888 isoform P19492-2 limits assumed) above, with L485Y counted along it
# GluR3-S1 chimeras = experiment: Responses to saturating kainate concentrations compared with glutamate (outside-out patch); format: cell-based, rat; conditions: saturating kainate concentrations (5-10 mM)
structure (smiles),measurement,setting,value
NS(=O)(=O)c1cc2c(cc1Cl)NC(C1CC3C=CC1C3)NS2(=O)=O (stereo not drawn) [cyclothiazide],effect on desensitization (result in words),[1],completely blocked
same,inhibition at 100 µM,R6TM1R3,14 ± 4%
same,P/S values,GluR3flip,~1
same,inhibition of the peak response,R3(R6S1),12±3%
same,effect on desensitization (result in words),R6TM1R3(Y521L),Desensitization was blocked
same,reduction of peak response,GluR3 L507Y; cyclothiazide (100 µM),9.6±2.7%
"Cc1onc(O)c1CC(N)C(=O)O (racemic) [AMPA, (RS)-alpha-amino-3-hydroxy-5-methyl-4-isoxazoleepropionic acid]",P/S,GluR3 L507Y; agonist 1 mM,1.05±0.03
same,"efficacy of opening, ratio glutamate/agonist",GluR3 L507Y; n=7,0.97±0.03
C=C(C)[C@H]1CN[C@H](C(=O)O)[C@H]1CC(=O)O [kainate],desensitization of responses (result in words),GluR3-S1 chimeras,essentially non-desensitizing
